In PMC4788259 (PLoS Neglected Tropical Diseases, 2016):

tested on: E. multilocularis metacestodes; test: PGI assay: phosphoglucose isomerase release from damaged metacestodes; assay type: cell-based, Echinococcus multilocularis; details: 10 μM, 5 days, single wells, relative to DB1127 (10 μM)
Procedure: The preparation of E. multilocularis metacestode material (strain H95) from intraperitoneally (i.p.) infected BALB/c mice was performed as described earlier. Metacestode vesicles were used for in vitro drug screening when they reached 2 to 4 mm in diameter.
For screening of the Malaria Box against E. multilocularis metacestodes, the PGI screening assay was applied that measures the release of the enzyme phosphoglucose isomerase (PGI) upon physical impairment of metacestodes. The screening setup was done in 24 well plates as described by Stadelmann et al. For initial screening, each drug was applied at 10 μM to metacestodes in single wells. As a positive control-drug, the dicationic diguanidino compound DB1127 (10 μM) was used and 0.1% DMSO was added as negative control. Metacestodes were cultured in the presence of the compounds for 5 days, after which PGI release was quantified exactly as stated in Stadelmann et al. […] Averages, standard deviations and EC50 values were calculated in Microsoft Excel 2010.

| Compound | PGI (% of DB1127 at 10 uM) [%] |
| --- | --- |
| CCOC(=O)C1=C(C)N=c2sc(=Cc3cc(Cl)ccc3O)c(=O)n2C1c1ccc(OC)cc1 (stereo not drawn) [MMV665971] | -11.30 |
| O=C(Nc1ccc(Cl)cc1)N1CCN(c2ccc3nncn3n2)CC1 [MMV665917] | -87.17 |
| Cc1ccc(C(=O)c2oc3ccc4c(C)cc(=O)oc4c3c2C)cc1 [MMV086103] | -6.30 |
| C=C(C)CCC(C)N1CCC(N2CCC(C(=O)NCCc3ccccc3)CC2)CC1 (stereo not drawn) [MMV666110] | -25.44 |
| COc1ccc2sc(N(Cc3cccnc3)C(=O)c3ccc(C#N)cc3)nc2c1 [MMV001239] | -2.38 |
| Cc1cc(Nc2ccc(Cl)cc2)n2nc(C(F)(F)F)nc2n1 [MMV011256] | -32.20 |
| CC1=C(CC(=O)c2cccc([N+](=O)[O-])c2)C(=O)c2ccccc2C1=O [MMV666125] | -2.81 |
| CN1c2ccccc2N(C)C1c1ccc2c(c1)OCO2 [MMV666009] | -36.57 |
| Cc1sc2ncnc(Sc3nc4ccccc4[nH]3)c2c1C [MMV019266] | -32.46 |
| CCC(=O)Nc1nnc(Cc2ccc(OC)c(OC)c2)s1 [MMV020942] | -6.11 |
| COc1ccc(-c2nc(NC(=O)CS(=O)(=O)c3ccc(F)cc3)sc2C)cc1 [MMV665915] | -67.15 |
| Cc1cc(N2CCCC2)nc(Nc2ccc(NC(=O)CCc3ccccc3)cc2)n1 [MMV396669] | -21.92 |
| CC(=O)c1sc(NC(=O)Nc2ccc(C)cc2C)nc1C [MMV665894] | -2.69 |
| COc1cc(C(=O)Nc2ccc(-c3nc4ccccc4[nH]3)cc2)cc(OC)c1OC [MMV665898] | -11.03 |
| CCCCCCc1cc2cc(-c3csc(C=Cc4ccccc4)n3)c(=O)oc2cc1O [MMV666692] | -4.22 |
| O=C1c2ccccc2-c2nnc(-c3ccc(Br)cc3)cc21 [MMV665934] | -7.23 |
| CCOc1ccc2c(c1)CN(Cc1ccc(Cl)cc1)CO2 [MMV000443] | -40.44 |

| Compound | PGI (% of DB1127 at 10 uM) [%] |
| --- | --- |
| COc1ccc(-n2ccnc2SCC(=O)Nc2cc(C)ccc2C)c(OC)c1 [MMV019258] | -33.26 |
| CCN1CCN(c2cc(C)c3cc(NC(=O)c4ccc(OC)c(OC)c4)ccc3n2)CC1 [MMV019074] | -7.35 |
| CCCCC(O)(c1ccc(Cl)cc1)C(CN1CCOCC1)c1ccc(Cl)cc1.Cl (stereo not drawn) [MMV000619] | -6.41 |
| COc1cc(-c2nc(-c3ccc(Sc4ccccc4)cc3)c(-c3ccccc3)[nH]2)cc(OC)c1O [MMV007273] | -7.16 |
| C=CC12CCN(CC1)C(C(O)c1ccnc3ccc(OC)cc13)C2.Cl (stereo not drawn) [MMV665782] | -43.49 |
| CCOc1ccc(CCNC(=O)c2cccs2)cc1OCC [MMV007978] | -3.44 |
| COc1ccccc1N1C(=N)SC(=Cc2ccc(OCc3ccccc3F)cc2)C1=O [MMV007199] | -51.03 |
| CCOC(=O)c1cnc2ccc(Cl)cc2c1NCCCN(C)C [MMV006882] | 9.75 |
| COc1ccc(C(=O)NC(c2ccccc2Cl)c2cc(Cl)c3cccnc3c2O)cc1 (stereo not drawn) [MMV666022] | 259.47 |
| O=C(NCCCN1CCC(N2CCCCC2)CC1)C1=Cc2cc(Br)ccc2OC1 [MMV019995] | 11.48 |
| O=C(NNc1cc(N2CCCC2)nc(N2CCCC2)n1)c1ccccc1 [MMV396770] | -1.95 |
| O=C(NCc1ccco1)C1CCN(S(=O)(=O)c2ccc(Br)cc2)CC1 [MMV007430] | -0.53 |
| CC(C)(C)C(=O)Nc1ccc(C(=O)Nc2cccc(-c3nc4ccccc4[nH]3)c2)cc1 [MMV665879] | 17.15 |
| O=[N+]([O-])c1ccc(C=NNc2nc3ccccc3[nH]2)cc1 [MMV666607] | -48.05 |
| CCOc1ccc(-c2nc(NC(=O)c3cccc(S(C)(=O)=O)c3)sc2C)cc1 [MMV665913] | -25.30 |
| Oc1ccccc1CN1CCC2(CCCN(Cc3ccccc3F)C2)C1 (stereo not drawn) [MMV666116] | -7.59 |
